Reference: patent US9040715B2 (priority 2008, dated 2015)
Converted amounts (≈) assume the structure as drawn. Read-outs that look alike come from different tables or passages of the source. *1 amine or outer side, *2 acyl side, *3 side chain or, on linkers, in order; H or OH if unused. Where a SMILES comes first, the peptide text is derived from it. Bridges are numbered along the chain shown (N, C = ends). [ ]: non-standard residue; d: D form. The star is where a group is joined. hTyr(3S-OH,4S-OH,3'-OSO3H) = N[C@H](C(=O)O)[C@H](O)[C@@H](O)c1ccc(O)c(OS(=O)(=O)O)c1; Orn(4R-OH,5R-OH) = O=C([C@H](C[C@@H](O)[C@@H](O)N[*:3])N[*:1])[*:2]; Pro(3S-OH,4S-Me) = C[C@H]1CN[C@H](C(=O)O)[C@H]1O; X1 = CCCCCOc1ccc(-c2cc(-c3ccc(C(=O)*)cc3)no2)cc1; Gln(3R-OH) = NC(=O)C[C@@H](O)[C@H](N)C(=O)O; Hyp = O=C(O)[C@@H]1C[C@@H](O)CN1

Experiments:
Type in all cases: cell-based
[1] = system: Candida apicola; experiment: Anti-fungal/anti-yeast activity: MIC50 (broth microdilution) and MFC; conditions: for MFC / MIC50: Starmerella apicola
Protocol: (§1) Fluconazole, an ergosterol inhibitor, and the beta-1,3-glucan inhibitor micafungin served as controls (See Tables 1-8).
(§2) The minimum inhibitory concentrations resulting in 50% growth inhibition (MIC50) of […] Candida species (C. albicans, C. tropicalis and C. glabrata, C. lusitaniae, C. parapsilosis, and C. apicola) as well as Aspergillus fumigatus to a set of novel synthetic compounds was determined in accordance with the guidelines in CLSI document M27-A2 (Clinical and Laboratory Standards Institute; Wayne, Pa.). The total volume of cells and drug was 100 μL per microtiter well, and each drug was diluted in RPMI to achieve final concentrations of 0.2-100 μg/ml. Uninoculated cultures were used as a reference standard. Stock inoculum suspensions were prepared from 24 hour cultures on YPD (yeast extract/peptone/dextrose) media at 30° C. For MIC determinations, an inoculum of 1.0×10^3 cells of Candidia and 2.0×10^3 cells of Aspergillus per well were used, and cells in diluted drugs were prepared in RPMI-1640 medium. MICs were determined both visually and spectrophotometrically at 24 hours and 48 h at 550 nm using a micro plate reader. The MIC50 endpoint was measured as the lowest drug concentration resulting in a reduction of growth of 50% or more compared with growth of the control.
(§3) The minimum fungicidal concentrations (MFCs) were determined for each drug-isolate-medium combination as follows. After 48 hours of incubation, 100 μL of each drug-isolate-medium combination (2 plates) was subcultured onto YPD plates (100 μL of solution was spread over the YPD plate). […] The plates were then incubated at 30° C. for 48 hours.
(§4) The in vitro fungicidal activities (MFCs) were determined for each drug-isolate-medium combination as follows. After 48 hours of incubation, 10 μL each drug-isolate-medium combination was spotted onto YPD plates (10 μL of each well is spotted sequentially with positive and negative control wells). […] The plates were then incubated at 30° C. for 48 hours.

[2] = system: Candida glabrata; experiment: as above; conditions: for MFC / MIC50: Nakaseomyces glabratus
Protocol: as §1, §2, §3, §4

[3] = system: Candidia parapsilosis; experiment: as above
Protocol: as §1, §2, §3, §4

[4] = system: Aspergillus fumigatus; experiment: as above
Protocol: as §1, §2, §3, §4

[5] = system: Candida tropicalis; experiment: as above
Protocol: as §1, §2, §3, §4

[6] = system: Candida albicans (CAF-2); experiment: as above
Protocol: as §1, §2, §3, §4

[7] = system: Candida lusitaniae; experiment: as above; conditions: for MFC / MIC50: Clavispora lusitaniae
Protocol: as §1, §2, §3, §4

[8] = system: Fluconazole Resistant C. albicans; experiment: microbe, parasite or virus in culture; conditions: Candida albicans, read-out: MIC50
Protocol: as §2
The MIC50 of Compounds I-1, I-2, and I-5 in several mutant strains of Candida albicans, including fluconazole resistant clinical strains, was determined according to the methods described in Example 1 (see Table 9). The activity of Compound I-1 against fluconazole resistant strains was further explored (see Table 10). In Table 10, Strain #1 is a fluconazole sensitive Candida albicans strain; Strain #17 is a fluconazole resistant Candida albicans strain; C. albicans CS#01 is a first clinical strain; C. albicans CS#02 is a second clinical strain.

[9] = system: Saccharomyces cerevisiae (YPH501); experiment: Anti-fungal/anti-yeast activity: MIC50 (broth microdilution) and MFC
[10] = Saccharomyces cerevisiae (YPH501)

Row | SMILES | Activity (fungicidal/fungistatic) ([1]; Candida apicola) | Ratio MFC/MIC ([1]; Candida apicola) | Activity (fungicidal/fungistatic) ([2]; Candida glabrata) | Ratio MFC/MIC ([2]; Candida glabrata) | Activity (fungicidal/fungistatic) ([3]; Candidia parapsilosis) | Ratio MFC/MIC ([3]; Candidia parapsilosis) | Activity (fungicidal/fungistatic) [4] | Ratio MFC/MIC [4] | Activity (fungicidal/fungistatic) [5] | Ratio MFC/MIC [5] | Activity (fungicidal/fungistatic) [6] | MFC [6] [µg/mL] | MIC50 [6] [µg/mL] | Ratio MFC/MIC [6] | Activity (fungicidal/fungistatic) ([7]; Candida lusitaniae) | Ratio MFC/MIC ([7]; Candida lusitaniae) | Activity (fungicidal/fungistatic) [9, 10] | Ratio MFC/MIC [9, 10] | further results
1 | OC(Cn1cncn1)(Cn1cncn1)c1ccc(F)cc1F [Fluconazole, reference compound] | fungistatic (an MFC/MIC ratio of greater than four indicates that the compound is fungistatic) | 5 | fungistatic (an MFC/MIC ratio of greater than four indicates that the compound is fungistatic) | 9 | fungistatic (an MFC/MIC ratio of greater than four indicates that the compound is fungistatic) | 10 | fungistatic (an MFC/MIC ratio of greater than four indicates that the compound is fungistatic) | 7 | fungistatic (an MFC/MIC ratio of greater than four indicates that the compound is fungistatic) | 5 | fungistatic (an MFC/MIC ratio of greater than four indicates that the compound is fungistatic) | 5 | 0.25 | 20 | fungistatic (an MFC/MIC ratio of greater than four indicates that the compound is fungistatic) | 8 | fungicidal (An MFC/MIC ratio of less than four indicates that the compound is fungicidal) | 1 | MFC ([1]; Candida apicola, read-out: MFC): 1 µg/mL; MIC50 ([1]; Candida apicola, read-out: MIC-50): 0.2 µg/mL; MFC ([2]; Candida glabrata, read-out: MFC): 50 µg/mL; MIC50 ([2]; Candida glabrata, read-out: MIC-50): 6.2 µg/mL; MFC ([3]; Candidia parapsilosis, read-out: MFC): 4 µg/mL; MIC50 ([3]; Candidia parapsilosis, read-out: MIC-50): 0.4 µg/mL; MFC ([4]; read-out: MFC): 200 µg/mL; MIC50 ([4]; read-out: MIC-50): 30 µg/mL; MFC ([5]; read-out: MFC): 100 µg/mL; MIC50 ([5]; read-out: MIC-50): 20 µg/mL; MFC ([7]; Candida lusitaniae, read-out: MFC): 25 µg/mL; MIC50 ([7]; Candida lusitaniae, read-out: MIC-50): 3.2 µg/mL; MIC50 ([8]; C. albicans CS#01, first clinical strain): 1.6 µg/mL (≈ 5.22 µM); MIC50 ([8]; C. albicans CS#02, second clinical strain): 1.6 µg/mL (≈ 5.22 µM); MIC50 ([8]; Strain #1, fluconazole sensitive Candida albicans strain): 0.8 µg/mL (≈ 2.61 µM); MIC50 ([8]; Strain #17, fluconazole resistant Candida albicans strain): > 100 µg/mL; MFC ([9]; Saccharomyces cerevisiae (YPH501), read-out: MFC): 10 µg/mL (≈ 32.7 µM); MIC50 ([9]; Saccharomyces cerevisiae (YPH501), read-out: MIC-50): 10 µg/mL (≈ 32.7 µM)
2 | CCCCCOc1ccc(-c2cc(-c3ccc(C(=O)N[C@H]4C[C@@H](O)[C@@H](O)NC(=O)[C@@H]5[C@@H](O)[C@@H](C)CN5C(=O)[C@H]([C@H](O)CC(N)=O)NC(=O)[C@H]([C@H](O)[C@@H](O)c5ccc(O)c(OS(=O)(=O)O)c5)NC(=O)[C@@H]5C[C@@H](O)CN5C(=O)[C@H]([C@@H](C)O)NC4=O)cc3)no2)cc1 [Micafungin, micafungin, reference compound] (X1-[Orn(4R-OH,5R-OH)]T[Hyp][hTyr(3S-OH,4S-OH,3'-OSO3H)][Gln(3R-OH)][Pro(3S-OH,4S-Me)]; lactam 1-C) | fungicidal (An MFC/MIC ratio of less than four indicates that the compound is fungicidal) | 2 | fungicidal (An MFC/MIC ratio of less than four indicates that the compound is fungicidal) | 1 | fungistatic (an MFC/MIC ratio of greater than four indicates that the compound is fungistatic) | 8 | fungistatic (an MFC/MIC ratio of greater than four indicates that the compound is fungistatic) | 8 | fungicidal (An MFC/MIC ratio of less than four indicates that the compound is fungicidal) | 2 | fungicidal (An MFC/MIC ratio of less than four indicates that the compound is fungicidal) | 0.016 | 0.016 | 1 | fungicidal (An MFC/MIC ratio of less than four indicates that the compound is fungicidal) | 1 | fungicidal (An MFC/MIC ratio of less than four indicates that the compound is fungicidal) | 2 | MFC [1]: 0.032 µg/mL; MIC50 [1]: 0.016 µg/mL; MFC [2]: 0.016 µg/mL; MIC50 [2]: 0.016 µg/mL; MFC [3]: 3.2 µg/mL; MIC50 [3]: 0.4 µg/mL; MFC [4]: 8 µg/mL; MIC50 [4]: 1 µg/mL; MFC [5]: 0.032 µg/mL; MIC50 [5]: 0.016 µg/mL; MFC [7]: 0.032 µg/mL; MIC50 [7]: 0.032 µg/mL; MFC ([9]; Saccharomyces cerevisiae): 0.064 µg/mL (≈ 0.0504 µM); MIC50 ([9]; Saccharomyces cerevisiae): 0.032 µg/mL (≈ 0.0252 µM)
